“And” between values parts separate entries of the source, which are not always exact repeats. Equal entries are not always repeated.
Experiments:
Pyrenophora teres = test: In vivo preventive test on Pyrenophora teres (barley); conditions: 500 ppm of active ingredient, evaluated 7-9 days after inoculation
Description: One day after this treatment, the plants are inoculated with an aqueous spore suspension of Pyrenophora teres.

aflatoxines production = test: microbe, parasite or virus in culture; assay type: cell-based, Aspergillus parasiticus; conditions: for inhibition at 50 µM: Aspergillus parasiticus, 168 h, read-out: % Inhibition of Aflatoxin at 50 μM
Leptosphaeria nodorum = test: In vivo preventive test on Leptosphaeria nodorum (wheat); conditions: 500 ppm of active ingredient, evaluated 7-9 days after inoculation
Description: One day after this treatment, the plants are inoculated with an aqueous spore suspension of Leptosphaeria nodorum.

Fusarium graminearum = test: microbe, parasite or virus in culture; assay type: cell-based; conditions: for inhibition at 50 µM: Fusarium graminearum, 168 h, read-out: % Inhibition of fungal growth at 50 μM
Sphaerotheca fuliginea = test: In vivo preventive test on Sphaerotheca fuliginea (cucumber); conditions: 500 ppm of active ingredient, evaluated 7 days after inoculation
Description: One day after this treatment, the plants are inoculated with an aqueous spore suspension of Sphaerotheca fuliginea.

Puccinia triticina = test: In vivo preventive test on Puccinia triticina (wheat); conditions: dose 500 ppm of active ingredient, evaluated 8 days after inoculation
[1] = logP by HPLC on reversed-phase column (C 18), EEC Directive 79/831 Annex V.A8; assay type: physicochemical
Method: In table 1, the logP values were determined in accordance with EEC Directive 79/831 Annex V.A8 by HPLC (High Performance Liquid Chromatography) on a reversed-phase column (C 18), using the method described below: Temperature: 40° C.; […]

Alternaria solani = test: In vivo preventive test on Alternaria solani (tomato); conditions: 500 ppm of active ingredient, evaluated 7 days after inoculation
Description: One day after this treatment, the plants are inoculated with an aqueous spore suspension of Alternaria solani.

[2] = test system: Fusarium nivale (var. majus); test: In vivo preventive test on Fusarium nivale (wheat); conditions: 500 ppm of active ingredient, evaluated 5 days after inoculation
Description: (§1) To test for preventive activity, young plants are sprayed with the preparation of active compound or active compound combination at the stated rate of application.

[3] = test system: Blumeria graminis f.sp. hordei; test: In vivo preventive test on Blumeria graminis (barley); conditions: 500 ppm of active ingredient, evaluated 7 days after inoculation
Description: as §1

Septoria tritici = test: In vivo preventive test on Septoria tritici (wheat); conditions: 500 ppm of active ingredient, evaluated 21 days after inoculation
Description: as §1

Botrytis cinerea = test: In vivo preventive test on Botrytis cinerea (beans); conditions: preventive, beans, lesion size 2 days after inoculation; for pest or weed control at 500 ppm: 500 ppm of active ingredient
Description: To test for preventive activity, young plants are sprayed with the preparation of active compound. After the spray coating has dried on, 2 small pieces of agar covered with growth of Botrytis cinerea are placed on each leaf.

Venturia inaequalis = test: In vivo preventive test on Venturia inaequalis (apple scab); conditions: 100 ppm of active ingredient, evaluated 10 days after inoculation
[4] = Botrytis cinerea, 48 h, read-out: Efficacy

SMILES | Efficacy (Pyrenophora teres) | % Inhibition of Aflatoxin at 50 μM (aflatoxines production) | Efficacy (Leptosphaeria nodorum) | % Inhibition of fungal growth at 50 μM (Fusarium graminearum) | Efficacy (Sphaerotheca fuliginea) | Efficacy (Puccinia triticina) | logP [1] | Efficacy (Alternaria solani) | Efficacy [2] | Efficacy [3] | Efficacy (Septoria tritici) | Efficacy (Botrytis cinerea; 100 ppm of active ingredient) | Efficacy (Venturia inaequalis) | pest or weed control at 500 ppm (Botrytis cinerea; [4]) | inhibition at 50 µM (aflatoxines production) | inhibition at 50 µM (Fusarium graminearum) | chromatographic logP [1] | pest or weed control at 100 ppm (Botrytis cinerea; Botrytis cinerea, 48 h, 100 ppm of active ingredient, read-out: Efficacy)
Cn1nc(C(F)F)c(C(=O)N(C[Si](C)(C)c2ccc3ccccc3c2)C2CC2)c1F [Example 245] | 100% | 100% | 100% | 100% | 100% | 95% | 4.36 | 100% | – | – | – | – | – | – | – | – | – | –
CN(C[Si](C)(C)c1ccccc1)C(=O)c1c(C(F)F)nn(C)c1F [Example 230] | 100% | 100% | 80% | 100% | – | 95% | 3.23 | 100% | 83% | 100% | 100% | – | – | – | – | – | – | –
Cn1nc(C(F)F)c(C(=O)NC(C)(C)C(=O)c2ccc3ccccc3c2)c1F [Example 160] | 100% | 100% | 70% | 100% | 95% | – | 2.92 | 95% | 83% | 70% | 70% | 100% | 100% | – | – | – | – | –
Cn1nc(C(F)F)c(C(=O)NCC(C)(C)c2ccc(Cl)cc2Cl)c1Cl [Example 88] | 100% | 100% | 90% | 86% | 94% | – | 4.03 | 100% | 88% | 80% | 90% | – | – | – | – | – | – | –
Cc1nn(C)c(F)c1C(=O)N(C(C)Cc1ncc(C(F)(F)F)cc1Cl)C1CC1 (stereo not drawn) [compound CMP5, N-{1-[3-chloro-5-(trifluoromethyl)pyridin-2-yl]propan-2-yl}-N-cyclopropyl-5-fluoro-1,3-dimethyl-1H-pyrazole-4-carboxamide, reference compound] | – | – | – | – | – | 11% | – | – | – | – | – | – | – | 0% | – | – | – | –
CC(Cc1ccc(Cl)cc1Cl)NC(=O)c1c(C(F)F)nn(C)c1F (stereo not drawn) [Example 67] | 100% | 100% | 90% | 100% | 100% | – | 3.46 | 100% | – | – | – | 89% | 100% | – | – | – | – | –
CC(Cc1ncc(C(F)(F)F)cc1Cl)N(C(=O)c1cn(C)nc1C(F)F)C1CC1 (stereo not drawn) [compound CMP4, N-{1-[3-chloro-5-(trifluoromethyl)pyridin-2-yl]propan-2-yl}-N-cyclopropyl-3-(difluoromethyl)-1-methyl-1H-pyrazole-4-carboxamide, reference compound] | – | – | – | – | – | 11% | – | – | – | – | – | – | – | 0% | – | – | – | –
Cn1nc(C(F)F)c(C(=O)N(CC(F)(F)c2ccc(Cl)cc2Cl)C2CC2)c1F [Example 86] | 100% | 100% | 100% | 98% | 100% | – | 3.94 | 100% | 93% | 100% | 80% | 100% | 100% | – | – | – | – | –
Cn1nc(C(F)F)c(C(=O)NC(C)(C)C(=O)c2ncc(C(F)(F)F)cc2Cl)c1F [Example 194, N-{1-[3-chloro-5-(trifluoromethyl)pyridin-2-yl]-2-methyl-1-oxopropan-2-yl}-3-(difluoromethyl)-5-fluoro-1-methyl-1H-pyrazole-4-carboxamide] | 100% | – | 90% | – | 98% | – | – | 100% | 100% | 100% | 100% | – | – | – | 100% | 100% | 3.23 | –
Cn1nc(C(F)F)c(C(=O)NC[Si](C)(C)c2ccccc2Cl)c1F [Example 233] | 100% | 88% | 80% | 76% | – | 95% | 3.48 | 95% | – | – | 90% | – | – | – | – | – | – | –
CC(Cc1cc(Cl)ccc1Cl)NC(=O)c1c(C(F)F)nn(C)c1Cl (stereo not drawn) [Example 93] | 100% | 100% | – | 100% | 95% | 70% | 3.53 | 100% | – | – | – | – | – | – | – | – | – | –
CC(Cc1ccc(Oc2ccccc2)cc1)NC(=O)c1c(C(F)F)nn(C)c1F (stereo not drawn) [Example 151] | 100% | 100% | 70% | 94% | 93% | – | 3.63 | 95% | 100% | 100% | 100% | – | – | – | – | – | – | –
Cn1nc(C(F)F)c(C(=O)N(CC(F)(F)c2cc(Cl)ccc2Cl)C2CC2)c1F [Example 99] | 100% | – | 95% | – | 98% | – | 3.85 | 95% | 92% | 89% | 100% | – | – | – | – | – | – | –
CC(Cc1ncc(C(F)(F)F)cc1Cl)N(C(=O)c1c(C(F)F)nn(C)c1Cl)C1CC1 (stereo not drawn) [Example 189] | 95% | 100% | – | 90% | 95% | 80% | 3.96 | 100% | 100% | 100% | 70% | – | – | – | – | – | – | –
Cn1nc(C(F)F)c(C(=O)NC[Si](C)(C)c2ccc(Cl)cc2Cl)c1F [Example 240] | 100% and 95% | 100% | 95% | 84% | – | 100% | 4.06 | 100% | – | – | – | – | – | – | – | – | – | –
CC(Cc1cc(Cl)cc(Cl)c1)NC(=O)c1c(C(F)F)nn(C)c1Cl (stereo not drawn) [Example 104] | 100% | 100% | – | 98% | 86% | 70% | 3.67 | 95% | – | – | – | – | – | – | – | – | – | –
CC(Cc1ncc(C(F)(F)F)cc1Cl)NC(=O)c1c(C(F)F)nn(C)c1F (stereo not drawn) [Example 190, N-{1-[3-chloro-5-(trifluoromethyl)pyridin-2-yl]propan-2-yl}-3-(difluoromethyl)-5-fluoro-1-methyl-1H-pyrazole-4-carboxamide] | 100% | – | – | – | 100% | – | – | 100% | 88% | 100% | 100% | – | 100% | 100% | 100% | 100% | 3.08 | 96%

— patent US9232799B2, “N-[(het)arylethyl)] pyrazole(thio)carboxamides and their heterosubstituted analogues” (BAYER INTELLECTUAL PROPERTY GMBH, priority 2010, dated 2016)
